# Active and inactive are the calls of the source. The rule behind the calls is not given here.
# Target: Ubiquitin-conjugating enzyme E2 N (Homo sapiens) (UniProt P61088)
# Experiment: UBE2N binders by NMR, biophysical, purified protein (AID 1552)
# Conditions: NMR binding to purified UBE2N
# Ubiquitin-conjugating enzyme E2 N (Homo sapiens), sequence (P61088 whole entry, looked up): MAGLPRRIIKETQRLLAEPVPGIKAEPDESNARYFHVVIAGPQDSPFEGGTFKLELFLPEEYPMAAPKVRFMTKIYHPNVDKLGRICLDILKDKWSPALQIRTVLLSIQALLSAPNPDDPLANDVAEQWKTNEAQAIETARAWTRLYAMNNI
row,Structure (SMILES),Kd
1,Oc1ccc(-n2ccnc2)cc1,> 4 mM (inactive)
2,Cc1cc(=O)n2ncn(Cc3ccccc3)c2n1,> 4 mM (inactive)
3,O=c1ccc2cc(O[C@@H]3O[C@H](CO)[C@@H](O)[C@H](O)[C@H]3O)c(O)cc2o1,> 4 mM (inactive)
4,Cc1cc(NS(=O)(=O)Cc2ccccc2)no1,> 4 mM (inactive)
5,CC1NC(C(=O)O)Cc2c1[nH]c1ccccc21 (centres undefined),> 4 mM (inactive)
6,NC(=O)Cn1nc(-c2ccco2)ccc1=O,> 4 mM (inactive)
7,NC(=O)c1ccccc1N=Cc1ccco1,> 4 mM (inactive)
8,O=C1C2C3C=CC(C3)C2C(=O)N1c1nccs1 (centres undefined),> 4 mM (inactive)
9,COc1cc2c(cc1OC)Cc1cc(OC)c(OC)cc1Cc1cc(OC)c(OC)cc1C2,> 4 mM (inactive)
10,COC(=O)c1cc2cc(N)ccc2s1,> 4 mM (inactive)
11,COc1cccc(-c2nc(-c3ccccn3)no2)c1OC,> 4 mM (inactive)
12,CN(C)S(=O)(=O)c1ccc(C(=O)NN)cc1,> 4 mM (inactive)
13,CC(=O)c1cc(C)ccc1OC(=O)c1cccnc1,> 4 mM (inactive)
14,Cc1ccc(C)c(C(=O)n2cnnc2N)c1,> 4 mM (inactive)
15,CC1(C)CC[C@]2(C(=O)O)CC[C@]3(C)C(=CCC4[C@@]5(C)CC[C@@H](O)C(C)(C)C5CC[C@]43C)C2C1 (some centres undefined),> 4 mM (inactive)
16,COc1ccc([C@@H]2CC(=O)c3c(O)cc(O[C@@H]4O[C@H](CO[C@H]5O[C@@H](C)[C@H](O)[C@@H](O)[C@H]5O)[C@@H](O)[C@H](O)[C@H]4O)cc3O2)cc1O,> 4 mM (inactive)
17,COc1ccc2nc(SCC(N)=O)[nH]c2c1,> 4 mM (inactive)
18,CCn1c(C)c(C(C)=O)c(N2CCOCC2)nc1=S,> 4 mM (inactive)
19,CCOC(=O)C1=C(C)N2CCN=C2S1,> 4 mM (inactive)
20,Cc1occc1C(=O)Nc1ccc(C(N)=O)cc1,> 4 mM (inactive)
21,Cc1nc2ccccc2c2c1C(=O)N(N)C2=O,> 4 mM (inactive)
22,CCCCn1c(S(=O)(=O)O)nc2ccccc21,> 4 mM (inactive)
23,COc1cc2ccc(=O)oc2c2ccoc12,> 4 mM (inactive)

row,Structure (SMILES),Kd
1,Cc1ccc(C(=O)N2CC(=O)NC(=O)C2)cc1,> 4 mM (inactive)
2,Nc1cccc(C(=O)c2ccccc2)c1,> 4 mM (inactive)
3,CC(C)NC(=S)N1CCN(S(C)(=O)=O)CC1,> 4 mM (inactive)
4,CC1C[C@H]2CC(=O)[C@H]3CCCN4CCC[C@H]2[C@]34C1 (some centres undefined),> 4 mM (inactive)
5,CCN1C(=O)N(CO)C2C1N(C)C(=O)N2C (centres undefined),> 4 mM (inactive)
6,Cc1nc2ccc(C(=O)O)cc2[nH]1,> 4 mM (inactive)
7,O=C(O)c1cnc2sc3ccccc3n2c1=O,> 4 mM (inactive)
8,CC12OC(=O)CC3C(C)(C)[C@H](O)C=C[C@]3(C)C1CC[C@]1(C)C2=CC(=O)O[C@H]1c1ccoc1 (some centres undefined),> 4 mM (inactive)
9,COc1ccc2c(c1OC)C(=O)OC2[C@H]1c2c(cc3c(c2OC)OCO3)CCN1C (some centres undefined),> 4 mM (inactive)
10,CN(C)S(=O)(=O)c1ccc(NC=O)cc1,> 4 mM (inactive)
11,CC(=O)O[C@@H]1CC[C@@]2(C)C(CC[C@]3(C)C2CC=C2C4CC(C)(C)CC[C@]4(C(=O)O)CC[C@]23C)C1(C)C (some centres undefined),> 4 mM (inactive)
12,NC1=NC(=O)/C(=C\c2ccco2)S1,> 4 mM (inactive)
13,N#Cc1cn(CC(=O)N2CCCC2)c2ccccc12,> 4 mM (inactive)
14,Cc1oc(S(=O)(=O)N2CCCCC2)cc1C(=O)O,> 4 mM (inactive)
15,O=C(O[C@@H]1Cc2c(O)cc(O)cc2O[C@@H]1c1cc(O)c(O)c(O)c1)c1cc(O)c(O)c(O)c1,> 4 mM (inactive)
16,CC1(C)Oc2ccc(N)cc2O1,> 4 mM (inactive)
17,Nc1nc(SCc2ccc3c(c2)OCCO3)n[nH]1,> 4 mM (inactive)
18,NC(=O)CCn1c(=O)oc2ccccc21,> 4 mM (inactive)
19,CN1CCC(N2CCCC(C(N)=O)C2)CC1 (centres undefined),> 4 mM (inactive)
20,Oc1cc(O)c2c(c1)O[C@H](c1ccc(O)c(O)c1)[C@H](O)C2,> 4 mM (inactive)
21,Cc1cccc(CSc2nncc(=O)[nH]2)c1,> 4 mM (inactive)
22,Cc1nnc(SCC(=O)NC2CCCC2)[nH]c1=O,> 4 mM (inactive)
23,O=C1CCCC2C3CC(CN12)[C@@H]1CCCCN1C3 (some centres undefined),> 4 mM (inactive)

row,Structure (SMILES),Kd
1,NCc1csc2ccccc12,> 4 mM (inactive)
2,CCC(=O)Nc1ccccc1NC(C)=O,> 4 mM (inactive)
3,O=C(NCc1ccccc1F)c1cccs1,> 4 mM (inactive)
4,Cc1nnc(NCCCO)[nH]c1=O,> 4 mM (inactive)
5,CC(C1OC(C)(C)C(O)C1O)[C@@H]1CC[C@]2(C)C3=CCC4C(C)(C)C(=O)CC[C@]4(C)C3CC[C@@]12C (some centres undefined),> 4 mM (inactive)
6,Nc1nc(-c2ccc(O)cc2)cs1,> 4 mM (inactive)
7,C[C@]12CC(=O)C3C(CC[C@@H]4C[C@H](O)CC[C@]34C)C1CC[C@]2(O)C(=O)CO (some centres undefined),> 4 mM (inactive)
8,O=C(/C=C/c1ccco1)NC1=NCCS1,> 4 mM (inactive)
9,Cc1c(C)c2c(c(C)c1O)CCC(C)(CCCC(C)CCCC(C)CCCC(C)C)O2 (centres undefined),> 4 mM (inactive)
10,Nc1nc2n(c1C(=O)c1ccccc1)CCC2,> 4 mM (inactive)
11,CCOC(=O)C(C)c1n[nH]c(=O)c2ccccc12 (centres undefined),> 4 mM (inactive)
12,CNC(=O)c1ccccc1-c1ccccc1,> 4 mM (inactive)
13,COC(=O)C[C@H]1C(C)(C)C(=O)[C@@H]2CC3C4=CC(=O)O[C@@H](c5ccoc5)[C@]4(C)CCC3C1(C)C2=O (some centres undefined),> 4 mM (inactive)
14,CC(C)=CC(=O)Nc1ccccc1C(N)=O,> 4 mM (inactive)
15,Cc1nn(CC(=O)N2CCCCC2)c(=O)c2ccccc12,> 4 mM (inactive)
16,CC(=O)Oc1ccc2c(c1C(C)C)CCC1C(C)(C)CCC[C@]21C (some centres undefined),> 4 mM (inactive)
17,N#CCCn1ccnc1-c1ccccc1,> 4 mM (inactive)
18,CC(C)NC(=O)c1cc(-n2cnnc2)ccc1Cl,> 4 mM (inactive)
19,CC(=O)Nc1cccc(N2C(=O)CCC2=O)c1,> 4 mM (inactive)
20,CC(C)c1c(O)c(-c2cc3c(c(C(C)C)c2O)CCC2C(C)(C)CCC[C@]32C)cc2c1CCC1C(C)(C)CCC[C@]21C (some centres undefined),> 4 mM (inactive)
21,c1ccc(-c2csc(Nc3cccnc3)n2)nc1,> 4 mM (inactive)
22,Cc1cc(C(=O)NC2=NCCS2)cs1,> 4 mM (inactive)
23,Cc1occc1C(=O)Nc1nccs1,> 4 mM (inactive)

row,Structure (SMILES),Kd
1,O=C(NN1CCOCC1)c1ccccc1F,> 4 mM (inactive)
2,OCc1ccc2c(c1)OCCO2,> 4 mM (inactive)
3,NC12CC3CC(C1)CC(O)(C3)C2,> 4 mM (inactive)
4,COc1cc2c3cc1Oc1cc(ccc1O)C[C@@H]1c4c(cc(OC)c(O)c4Oc4ccc(cc4)C[C@@H]3N(C)CC2)CC[N+]1(C)C,> 4 mM (inactive)
5,O=c1c(O)c(-c2ccccc2)oc2ccccc12,> 4 mM (inactive)
6,O=C(O)c1ccc(-c2cnco2)cc1,> 4 mM (inactive)
7,O=C(/C=C/c1ccccc1)NC1CCS(=O)(=O)C1 (centres undefined),> 4 mM (inactive)
8,CC(=O)O[C@H]1CC[C@@]2(C)C(CC[C@]3(C)C2CC=C2C4CC(C)(C)CC[C@]4(C)CC[C@]23C)C1(C)C (some centres undefined),> 4 mM (inactive)
9,O=c1cnnc(NCc2ccc(F)cc2)[nH]1,> 4 mM (inactive)
10,Oc1cc(O)c2c(c1)O[C@H](c1ccc(O)c(O)c1)[C@@H](O)C2,> 4 mM (inactive)
11,Nc1nc(-c2ccc(Cl)cc2)nn1C(=O)c1cccnc1,> 4 mM (inactive)
12,O=C1CCC(=O)N1CN1CCOCC1,> 4 mM (inactive)
13,COC(=O)CCC(C)[C@H]1CCC2C3C(C[C@H](O)[C@@]21C)[C@@]1(C)CC[C@@H](O)C[C@H]1C[C@H]3O (some centres undefined),> 4 mM (inactive)
14,Nc1ncnc2c1ncn2C1C[C@H](O)[C@@H](CO)O1 (some centres undefined),> 4 mM (inactive)
15,CN1C(=O)CC(=O)N(C)c2ccccc21,> 4 mM (inactive)
16,Cc1ccc2c(c1)CCCN2C(=O)c1ccncc1,> 4 mM (inactive)
17,Nc1cc(-c2ccco2)[nH]n1,> 4 mM (inactive)
18,O=C1CCC(c2cccs2)=NN1,> 4 mM (inactive)
19,O=c1c2ccccc2ncn1C1CCCCC1,> 4 mM (inactive)
20,c1ccc(C2NCCc3[nH]cnc32)cc1 (centres undefined),> 4 mM (inactive)
21,COc1cccc(Oc2ccc(N)cc2)c1,> 4 mM (inactive)
22,CN1CCN(C2CCN(Cc3ccccc3)CC2)CC1,> 4 mM (inactive)
23,COc1ccc(C(=O)NC2=NCCS2)cc1OC,> 4 mM (inactive)

row,Structure (SMILES),Kd
1,C=C[C@](C)(O)CCC=C(C)C,> 4 mM (inactive)
2,C[C@]12CCC(=O)C=C1CCC1C2C(=O)C[C@@]2(C)C1CC[C@]2(O)C(=O)CO (some centres undefined),> 4 mM (inactive)
3,Cc1nc2c(=O)[nH]c3ccccc3c2o1,> 4 mM (inactive)
4,O=C(NCc1ccccn1)c1ccc(Br)s1,> 4 mM (inactive)
5,O=C(O)c1ccc2nccnc2c1,> 4 mM (inactive)
6,O=C(O)c1coc2c1C(=O)CCC2,> 4 mM (inactive)
7,Cc1nc(SCC(=O)c2c[nH]c3ccccc23)n[nH]1,> 4 mM (inactive)
8,CC(NC(=O)c1cccnc1)c1ccc2c(c1)OCO2 (centres undefined),> 4 mM (inactive)
9,COc1cccc(NC(=O)c2cccs2)c1,> 4 mM (inactive)
10,CCc1c(C)[nH]c(=S)c(C(N)=O)c1C,> 4 mM (inactive)
11,N/C(=N/O)C1COc2ccccc2O1 (centres undefined),> 4 mM (inactive)
12,CC(C)(O)[C@@H]1Cc2cc3ccc(=O)oc3cc2O1,> 4 mM (inactive)
13,O=C1CSC(=Nc2ccccc2)N1,> 4 mM (inactive)
14,O=C(O)Cn1nnnc1-c1ccc(F)cc1,> 4 mM (inactive)
15,CC1=C(C(N)=O)C(c2ccccc2)NC(=O)N1 (centres undefined),> 4 mM (inactive)
16,OCC1COc2ccccc2O1 (centres undefined),> 4 mM (inactive)
17,CN=C(c1ccc([N+](=O)[O-])cc1)N(C)C,> 4 mM (inactive)
18,OCc1ccc(OC(F)(F)F)cc1,> 4 mM (inactive)
19,Nc1nonc1-c1nc2ccccc2[nH]1,> 4 mM (inactive)
20,COc1cccc(N2CCNCC2)c1,> 4 mM (inactive)
21,Cc1nc(CC(=O)O)c(-c2ccccc2)s1,> 4 mM (inactive)
22,CC(C)[C@@H]1CC[C@@H](C)CC1=O,> 4 mM (inactive)

# — PubChem BioAssay AID1552 (Sanford-Burnham Center for Chemical Genomics, 2009)
